Tests used:
Assay type in all cases: in vivo
[1] = tested on: barnyardgrass (Echinochloa crus-galli); assay: Test B flooded paddy test; design: key: 0 = no effect, 100 = complete control; settings: Flood, 250 g ai/ha applied to paddy water at 2-leaf stage; visually evaluated after 13 to 15 days; scale 0 (no effect) to 100 (complete control)
Experimental: (§1) Plant species in the flooded paddy test selected from rice (Oryza sativa), sedge, umbrella (small-flower umbrella sedge, Cyperus difformis), ducksalad (Heteranthera limosa), and barnyardgrass (Echinochloa crus-galli) were grown to the 2-leaf stage for testing. At time of treatment, test pots were flooded to 3 cm above the soil surface, treated by application of test compounds directly to the paddy water, and then maintained at that water depth for the duration of the test. Treated plants and controls were maintained in a greenhouse for 13 to 15 days, after which time all species were compared to controls and visually evaluated. Plant response ratings, summarized in Table B, are based on a scale of 0 to 100 where 0 is no effect and 100 is complete control. A dash (-) response means no test result.

[2] = tested on: ducksalad (Heteranthera limosa); assay: Test B flooded paddy test; design: key: 0 = no effect, 100 = complete control; settings: Flood, 250 g ai/ha applied to paddy water at 2-leaf stage; visually evaluated after 13 to 15 days; scale 0 (no effect) to 100 (complete control)
Experimental: as §1

[3] = tested on: sedge, umbrella (small-flower umbrella sedge, Cyperus difformis); assay: Test B flooded paddy test; design: key: 0 = no effect, 100 = complete control; settings: Flood, 250 g ai/ha applied to paddy water at 2-leaf stage; visually evaluated after 13 to 15 days; scale 0 (no effect) to 100 (complete control)
Experimental: as §1

rice (Oryza sativa) = assay: Test B flooded paddy test; design: key: 0 = no effect, 100 = complete control; settings: Flood, 250 g ai/ha applied to paddy water at 2-leaf stage; visually evaluated after 13 to 15 days; scale 0 (no effect) to 100 (complete control)
Experimental: as §1

kochia (Kochia scoparia) [4] = assay: Test A postemergence application; settings: approx. 10 days
Excerpt: (§2) Seeds of plant species selected from barnyardgrass (Echinochloa crus-galli), kochia (Kochia scoparia), ragweed (common ragweed, Ambrosia elatior), Italian ryegrass (Lolium multiflorum), giant foxtail (Setaria faberii), and pigweed (Amaranthus retroflexus) were planted into a blend of loam soil and sand and treated preemergence with a directed soil spray using test chemicals formulated in a non-phytotoxic solvent mixture which included a surfactant. At the same time, plants selected from these weed species and also wheat (Triticum aestivum), corn (Zea mays), blackgrass (Alopecurus myosuroides), and galium (catchweed bedstraw, Galium aparine) were planted in pots containing the same blend of loam soil and sand and treated with postemergence applications of test chemicals formulated in the same manner. Plants ranged in height from 2 to 10 cm and were in the one- to two-leaf stage for the postemergence treatment. Treated plants and untreated controls were maintained in a greenhouse for approximately 10 days, after which time all treated plants were compared to untreated controls and visually evaluated for injury. Plant response ratings, summarized in Table A, are based on a 0 to 100 scale where 0 is no effect and 100 is complete control. A dash (-) response means no test result.

corn (Zea mays) = assay: Test A postemergence application; settings: approx. 10 days
Excerpt: as §2

[5] = tested on: pigweed (Amaranthus retroflexus); assay: Test A postemergence application; settings: approx. 10 days
Excerpt: as §2

[6] = tested on: Italian ryegrass (Lolium multiflorum); assay: Test A postemergence application; settings: approx. 10 days
Excerpt: as §2

[7] = tested on: barnyardgrass (Echinochloa crus-galli); assay: Test A postemergence application; settings: approx. 10 days
Excerpt: as §2

[8] = tested on: blackgrass (Alopecurus myosuroides); assay: Test A postemergence application; settings: approx. 10 days
Excerpt: as §2

[9] = tested on: ragweed (common ragweed, Ambrosia elatior); assay: Test A postemergence application; settings: approx. 10 days
Excerpt: as §2

[10] = tested on: galium (catchweed bedstraw, Galium aparine); assay: Test A postemergence application; settings: approx. 10 days
Excerpt: as §2

[11] = tested on: giant foxtail (Setaria faberii); assay: Test A postemergence application; settings: approx. 10 days
Excerpt: as §2

[12] = tested on: wheat (Triticum aestivum); assay: Test A postemergence application; settings: approx. 10 days
Excerpt: as §2

kochia (Kochia scoparia) [13] = assay: Test A preemergence, directed soil spray; settings: approx. 10 days
Excerpt: as §2

[14] = tested on: pigweed (Amaranthus retroflexus); assay: Test A preemergence, directed soil spray; settings: approx. 10 days
Excerpt: as §2

[15] = tested on: Italian ryegrass (Lolium multiflorum); assay: Test A preemergence, directed soil spray; settings: approx. 10 days
Excerpt: as §2

[16] = tested on: barnyardgrass (Echinochloa crus-galli); assay: Test A preemergence, directed soil spray; settings: approx. 10 days
Excerpt: as §2

[17] = tested on: ragweed (common ragweed, Ambrosia elatior); assay: Test A preemergence, directed soil spray; settings: approx. 10 days
Excerpt: as §2

[18] = tested on: giant foxtail (Setaria faberii); assay: Test A preemergence, directed soil spray; settings: approx. 10 days
Excerpt: as §2

Compound | Plant response rating, Barnyardgrass [1] | Plant response rating, Ducksalad [2] | Plant response rating, Sedge, Umbrella [3] | Plant response rating, Rice (rice (Oryza sativa)) | Plant response rating (0 to 100 scale, 0 no effect, 100 complete control), Kochia (kochia (Kochia scoparia) [4]; 31 g ai/ha) | Plant response rating (0 to 100 scale, 0 no effect, 100 complete control), Kochia (kochia (Kochia scoparia) [4]; 125 g ai/ha) | Plant response rating (0 to 100 scale, 0 no effect, 100 complete control), Corn (corn (Zea mays); 31 g ai/ha) | Plant response rating (0 to 100 scale, 0 no effect, 100 complete control), Corn (corn (Zea mays); 125 g ai/ha) | Plant response rating (0 to 100 scale, 0 no effect, 100 complete control), Pigweed ([5]; 31 g ai/ha) | Plant response rating (0 to 100 scale, 0 no effect, 100 complete control), Pigweed ([5]; 125 g ai/ha) | Plant response rating (0 to 100 scale, 0 no effect, 100 complete control), Ryegrass, Italian ([6]; 31 g ai/ha) | Plant response rating (0 to 100 scale, 0 no effect, 100 complete control), Ryegrass, Italian ([6]; 125 g ai/ha) | Plant response rating (0 to 100 scale, 0 no effect, 100 complete control), Barnyardgrass ([7]; 31 g ai/ha) | Plant response rating (0 to 100 scale, 0 no effect, 100 complete control), Barnyardgrass ([7]; 125 g ai/ha) | Plant response rating (0 to 100 scale, 0 no effect, 100 complete control), Blackgrass ([8]; 31 g ai/ha) | Plant response rating (0 to 100 scale, 0 no effect, 100 complete control), Blackgrass ([8]; 125 g ai/ha) | Plant response rating (0 to 100 scale, 0 no effect, 100 complete control), Ragweed ([9]; 31 g ai/ha) | Plant response rating (0 to 100 scale, 0 no effect, 100 complete control), Ragweed ([9]; 125 g ai/ha) | Plant response rating (0 to 100 scale, 0 no effect, 100 complete control), Galium ([10]; 31 g ai/ha) | Plant response rating (0 to 100 scale, 0 no effect, 100 complete control), Galium ([10]; 125 g ai/ha) | other results
O=c1cccc(Oc2ncc(Cl)cn2)n1-c1ncc(F)cn1 [Compound 4] | 0 | 0 | 0 | 0 | 40 | 80 | 0 | 10 | 50 | 70 | 0 | 0 | 0 | 0 | 20 | 20 | 10 | 20 | 30 | 50 | Plant response rating (0 to 100 scale, 0 no effect, 100 complete control), Foxtail, Giant ([11]; 31 g ai/ha): 0; Plant response rating (0 to 100 scale, 0 no effect, 100 complete control), Foxtail, Giant ([11]; 125 g ai/ha): 0; Plant response rating (0 to 100 scale, 0 no effect, 100 complete control), Wheat ([12]; 31 g ai/ha): 0; Plant response rating (0 to 100 scale, 0 no effect, 100 complete control), Wheat ([12]; 125 g ai/ha): 0; Plant response rating (0 to 100 scale, 0 no effect, 100 complete control), Kochia (kochia (Kochia scoparia) [13]; 31 g ai/ha): 0; Plant response rating (0 to 100 scale, 0 no effect, 100 complete control), Kochia (kochia (Kochia scoparia) [13]; 125 g ai/ha): 70; Plant response rating (0 to 100 scale, 0 no effect, 100 complete control), Pigweed ([14]; 31 g ai/ha): 70; Plant response rating (0 to 100 scale, 0 no effect, 100 complete control), Pigweed ([14]; 125 g ai/ha): 70; Plant response rating (0 to 100 scale, 0 no effect, 100 complete control), Ryegrass, Italian ([15]; 31 g ai/ha): 0; Plant response rating (0 to 100 scale, 0 no effect, 100 complete control), Ryegrass, Italian ([15]; 125 g ai/ha): 0; Plant response rating (0 to 100 scale, 0 no effect, 100 complete control), Barnyardgrass ([16]; 31 g ai/ha): 0; Plant response rating (0 to 100 scale, 0 no effect, 100 complete control), Barnyardgrass ([16]; 125 g ai/ha): 0; Plant response rating (0 to 100 scale, 0 no effect, 100 complete control), Ragweed ([17]; 31 g ai/ha): 0; Plant response rating (0 to 100 scale, 0 no effect, 100 complete control), Ragweed ([17]; 125 g ai/ha): 0; Plant response rating (0 to 100 scale, 0 no effect, 100 complete control), Foxtail, Giant ([18]; 31 g ai/ha): 0; Plant response rating (0 to 100 scale, 0 no effect, 100 complete control), Foxtail, Giant ([18]; 125 g ai/ha): 20
O=c1cccc(Oc2ncc(Cl)cn2)n1-c1ncc(C(F)(F)F)cn1 [Compound 5] | 0 | 85 | 75 | 0 | 40 | 60 | 0 | 10 | 70 | 90 | 0 | 30 | 0 | 20 | 30 | 50 | 30 | 80 | 50 | 90 | Plant response rating (0 to 100 scale, 0 no effect, 100 complete control), Foxtail, Giant ([11]; 31 g ai/ha): 10; Plant response rating (0 to 100 scale, 0 no effect, 100 complete control), Foxtail, Giant ([11]; 125 g ai/ha): 80; Plant response rating (0 to 100 scale, 0 no effect, 100 complete control), Wheat ([12]; 31 g ai/ha): 0; Plant response rating (0 to 100 scale, 0 no effect, 100 complete control), Wheat ([12]; 125 g ai/ha): 0; Plant response rating (0 to 100 scale, 0 no effect, 100 complete control), Kochia (kochia (Kochia scoparia) [13]; 31 g ai/ha): 0; Plant response rating (0 to 100 scale, 0 no effect, 100 complete control), Kochia (kochia (Kochia scoparia) [13]; 125 g ai/ha): 100; Plant response rating (0 to 100 scale, 0 no effect, 100 complete control), Pigweed ([14]; 31 g ai/ha): 90; Plant response rating (0 to 100 scale, 0 no effect, 100 complete control), Pigweed ([14]; 125 g ai/ha): 100; Plant response rating (0 to 100 scale, 0 no effect, 100 complete control), Ryegrass, Italian ([15]; 31 g ai/ha): 0; Plant response rating (0 to 100 scale, 0 no effect, 100 complete control), Ryegrass, Italian ([15]; 125 g ai/ha): 0; Plant response rating (0 to 100 scale, 0 no effect, 100 complete control), Barnyardgrass ([16]; 31 g ai/ha): 0; Plant response rating (0 to 100 scale, 0 no effect, 100 complete control), Barnyardgrass ([16]; 125 g ai/ha): 80; Plant response rating (0 to 100 scale, 0 no effect, 100 complete control), Ragweed ([17]; 31 g ai/ha): 0; Plant response rating (0 to 100 scale, 0 no effect, 100 complete control), Ragweed ([17]; 125 g ai/ha): 80; Plant response rating (0 to 100 scale, 0 no effect, 100 complete control), Foxtail, Giant ([18]; 31 g ai/ha): 70; Plant response rating (0 to 100 scale, 0 no effect, 100 complete control), Foxtail, Giant ([18]; 125 g ai/ha): 100
O=c1cccc(Oc2ncc(Cl)cn2)n1-c1ccc(Cl)cn1 [Compound 8] | 0 | 75 | 65 | 0 | 70 | 90 | 10 | 20 | 80 | 90 | 10 | 20 | 10 | 30 | 10 | 20 | 30 | 70 | 60 | 70 | Plant response rating (0 to 100 scale, 0 no effect, 100 complete control), Foxtail, Giant ([11]; 31 g ai/ha): 20; Plant response rating (0 to 100 scale, 0 no effect, 100 complete control), Foxtail, Giant ([11]; 125 g ai/ha): 70; Plant response rating (0 to 100 scale, 0 no effect, 100 complete control), Wheat ([12]; 31 g ai/ha): 0; Plant response rating (0 to 100 scale, 0 no effect, 100 complete control), Wheat ([12]; 125 g ai/ha): 0; Plant response rating (0 to 100 scale, 0 no effect, 100 complete control), Kochia (kochia (Kochia scoparia) [13]; 31 g ai/ha): 30; Plant response rating (0 to 100 scale, 0 no effect, 100 complete control), Kochia (kochia (Kochia scoparia) [13]; 125 g ai/ha): 100; Plant response rating (0 to 100 scale, 0 no effect, 100 complete control), Pigweed ([14]; 31 g ai/ha): 70; Plant response rating (0 to 100 scale, 0 no effect, 100 complete control), Pigweed ([14]; 125 g ai/ha): 100; Plant response rating (0 to 100 scale, 0 no effect, 100 complete control), Ryegrass, Italian ([15]; 31 g ai/ha): 0; Plant response rating (0 to 100 scale, 0 no effect, 100 complete control), Ryegrass, Italian ([15]; 125 g ai/ha): 10; Plant response rating (0 to 100 scale, 0 no effect, 100 complete control), Barnyardgrass ([16]; 31 g ai/ha): 0; Plant response rating (0 to 100 scale, 0 no effect, 100 complete control), Barnyardgrass ([16]; 125 g ai/ha): 30; Plant response rating (0 to 100 scale, 0 no effect, 100 complete control), Ragweed ([17]; 31 g ai/ha): 0; Plant response rating (0 to 100 scale, 0 no effect, 100 complete control), Ragweed ([17]; 125 g ai/ha): 20; Plant response rating (0 to 100 scale, 0 no effect, 100 complete control), Foxtail, Giant ([18]; 31 g ai/ha): 40; Plant response rating (0 to 100 scale, 0 no effect, 100 complete control), Foxtail, Giant ([18]; 125 g ai/ha): 80
